Data as given in ChEMBL document CHEMBL5038661, “Identification of a Novel 2,8-Diazaspiro[4.5]decan-1-one Derivative as a Potent and Selective Dual TYK2/JAK1 Inhibitor for the Treatment of Inflammatory Bowel Disease” (J Med Chem, 2022).

Assays:
[1] = in vivo; conditions: Sprague-Dawley, rat, po, 5 mg/kg
[2] = in vivo; conditions: Sprague-Dawley, rat, po, 5 mg/kg; remark: listed apart in the source
[3] = in vivo; conditions: Sprague-Dawley, rat, po, 5 mg/kg; remark: listed apart in the source
[4] = human, microsomes
[5] = in vivo; conditions: Sprague-Dawley, rat, po, 5 mg/kg; remark: listed apart in the source
[6] = in vivo; conditions: Sprague-Dawley, rat, po, 5 mg/kg; remark: listed apart in the source

Row | CL/F at 24 h [1] [L/h/kg] | AUC(0-t) [2] [µg·h/mL] | half-life at 24 h [3] [h] | Stability [4] | Cmax at 24 h [5] [µg/mL] | bioavailability at 24 h [6] [%] | Structure (SMILES)
1 | 2.49 | 2.1 | 2.8 | Stable | 0.415 | 59.3 | Cc1cnc(Nc2cnn(C)c2)nc1N1CCC2(CCNC2=O)CC1
2 | – | – | – | Unstable | – | – | [2H]C([2H])([2H])n1cc(Nc2ncc(C)c(N3CCC4(CCNC4=O)CC3)n2)cn1
